What was measured:
[1] = tested on: Polθ foci formation in RPE-1 cells expressing GFP–Polθ; test: siRNA screen for ionizing radiation-induced Polθ foci formation; type: cell-based, human; conditions: 10 nM siRNA, 72 h, then 5 Gy, 2 h; cells with at least 5 Polθ foci; median RZ score of the three siRNAs, three replicate experiments
Text: (§1) The Human DDR siRNA library comprising 1,746 single siRNAs representing 582 human genes (3 siRNAs per gene) was obtained from ThermoFisher Scientific (A30089). For controls, siRNAs targeting GL2, kinesin family member 11 (KIF11) and GM130 were used to assess transfection efficacy and induced cell toxicity. FANCD2 siRNA ([…]dT, defined as FANCD2-ctrl in Supplementary Table 1) was used as a positive control inhibiting Polθ foci formation. RPE-1 cells expressing GFP–Polθ (250 cells per well in 384-well plates) were grown overnight. siRNAs were incubated 15 min with 0.05 μl Interferin reagent (Polyplus transfection) and Opti-MEM (ThermoFisher Scientific) prior to being transferred into each 384-well plate wells, to obtain a 10 nM final concentration. Cells were irradiated 72 h after transfection, at a dose of 5 Gy (226 s) with the CIXD irradiator (RadeXp platform, Institut Curie) and incubated at 37 °C, 5% CO2 for 2 h. […] Polθ was then identified as organelles in the nuclei area and quantified by the average intensity of pixels within the defined organelles region. […] Corrected values were normalized as follows: sample median and median absolute deviation (MAD) were calculated from the Interferin-treated population of each internal plate data points (named as Ref pop) and used to compute robust Z-scores[59] […]

[2] = tested on: RPE-1 cells expressing GFP–Polθ; test: siRNA screen, cell count; type: cell-based, human
Text: as §1

GGAGAUUGAUGGUCUACUATdT (GGAGAUUGAUGGUCUACUATT; chemistry not given here) [fancd2-ctrl]
Robust z score_corrected_Cells multi-foci_MultiFoci (%) [1]: -7.14
Toxicity threshold [2]: Toxic
